≈ marks a conversion by molar mass, not a printed value. A value given as a limit tells only on which side of the number the result lay.

Results on 51 compounds are retold here after PubChem BioAssay AID1996.

The conditions of the series: buffer; pH 7.4; 200.0 µM.
Broadly, the solubility (kinetic) is the concentration staying in solution when a stock, usually in DMSO, is diluted into the medium. In turn, `CCOC(=O)c1cc(C#N)c(Nc2ccc(C)cc2)nc1C(F)(F)F` yielded a kinetic solubility of less than 0.2 µg/mL.

Compound `O=[N+]([O-])c1ccccc1COc1ccc(Cl)c2cccnc12` returned a solubility (kinetic) of less than 0.3 µg/mL.

`N#C/C(=C\c1cccnc1)C(=O)Nc1ccc(Cl)cc1` came in with a kinetic solubility of 5.7 µg/mL (≈ 20.1 µM).

On to `O=C(c1ccc([N+](=O)[O-])cc1)N1CCN(c2cccc3[nH]ccc23)CC1`, for which the kinetic solubility is 50.7 µg/mL (≈ 145 µM).

Regarding `O=C(COC(=O)C1(c2ccc(Cl)cc2)CCCC1)NCc1ccco1`, the kinetic solubility is 20.7 µg/mL (≈ 57.2 µM).

`Cc1sc2ncn(-c3ccccc3)c(=O)c2c1C` gave a kinetic solubility of 5.6 µg/mL (≈ 21.8 µM).

As to `CC(=O)c1cccc(NC(=O)C(CC(C)C)NC(=O)C2CCCCC2)c1` (stereo unspecified), the solubility (kinetic) amounted to 20.2 µg/mL (≈ 56.3 µM).

Compound `O=C(c1ccc2[nH]c(=O)c(=O)[nH]c2c1)N1CCc2ccccc21` displayed a kinetic solubility of 43 µg/mL (≈ 140 µM).

Take `Cc1ccc(OCC(=O)NCCCNC(=O)c2ccco2)cc1C`: the solubility (kinetic) is greater than 49.6 µg/mL.

`CS(=O)(=O)c1ccc(C(=O)OCC(=O)NC(=O)C2COc3ccccc3O2)cc1[N+](=O)[O-]` (stereo unspecified) returned a solubility (kinetic) of 39.2 µg/mL (≈ 84.4 µM).

As for `Cc1c(C(=O)O)c(C(=O)O)nc2ccc(N3CCOCC3)cc12`, the kinetic solubility is greater than 47.4 µg/mL.

In the case of `COc1ccc(CC(C)CC(=O)Nc2ccc(OC)cc2)cc1` (stereo unspecified), the solubility (kinetic) was found to be 4.6 µg/mL (≈ 14.7 µM).

`O=C1NC2(CCCCCC2)C(=O)N1Cc1ccccc1Br`: the solubility (kinetic) was determined as 17.1 µg/mL (≈ 48.7 µM).

Consider `Cn1c(N)c(C(=O)Nc2ccccc2F)sc1=S`, for which the kinetic solubility was 4.4 µg/mL (≈ 15.5 µM).

The compound `CC(=O)Nc1ccc(NCc2cccs2)cc1` returned a kinetic solubility greater than 36.9 µg/mL.

Regarding `CC(CCN1CCN(c2ccccc2)CC1)c1ccccc1.Cl` (stereo unspecified), the solubility (kinetic) turned out to be 29.7 µg/mL.

Turning to `CC(C)c1ccc(NC(=S)Nc2cccc3ccccc23)cc1`, the kinetic solubility came to 1.8 µg/mL (≈ 5.62 µM).

In turn, `O=C(C(c1ccccc1)c1ccccc1)N1CC[C@@]2(O)CCCC[C@H]2C1` displayed a kinetic solubility greater than 52.4 µg/mL.

Turning to `CCCCN(C(=O)C1CC1)C1CCS(=O)(=O)C1` (stereo unspecified), the kinetic solubility is greater than 38.9 µg/mL.

The compound `CCN(c1ccccc1)S(=O)(=O)c1cccc(C(=O)OCC(=O)Nc2ccc(NC(C)=O)cc2)c1` had a kinetic solubility of 2.6 µg/mL (≈ 5.25 µM).

`CCN(Cc1ccncc1)C(=O)c1cccc(S(=O)(=O)N2CCCCC2)c1`: the solubility (kinetic) is greater than 58.1 µg/mL.

Consider `CC1=CC(C)(C)NC(=S)N1c1ccc(C)cc1C`, for which the solubility (kinetic) stood at 2.1 µg/mL (≈ 8.06 µM).

`O=C(NCCCn1ccnc1)c1ccc(Cl)s1` showed a solubility (kinetic) greater than 40.5 µg/mL.

`O=C(O)C1CCN(C(=O)COc2ccc(Br)cc2)CC1`: the solubility (kinetic) is greater than 51.3 µg/mL.

`CSCC[C@H](NC(=O)NC1CCCC1)C(=O)O` returned a solubility (kinetic) greater than 39.1 µg/mL.

Regarding `COc1ccc(N2CCCC2)c(NC(=O)COc2ccccc2Cl)c1`, the kinetic solubility stood at 1 µg/mL (≈ 2.77 µM).

Compound `COc1cc(C(=O)NC(C)C2CC3CCC2C3)cc(OC)c1OC` (stereo unspecified) yielded a solubility (kinetic) of 9.8 µg/mL (≈ 29.4 µM).

`CC(C)NC(=O)c1ccc(COc2ccc(C(C)(C)C)cc2)o1` gave a kinetic solubility of 0.7 µg/mL (≈ 2.22 µM).

`O=C(CNC(=O)c1ccccc1)Oc1cccc(Cl)c1`: the solubility (kinetic) was greater than 43.5 µg/mL.

In turn, `CN(C)c1ccc(S(=O)(=O)N2CCCCC2)cc1NC(=O)C1=COCCO1` returned a kinetic solubility of 12 µg/mL (≈ 30.3 µM).

In turn, `Cc1nc(N)nc(Cl)c1Cc1ccc(Cl)cc1` showed a solubility (kinetic) of 3.6 µg/mL (≈ 13.4 µM).

`Cc1ccc(N2N=C(C(=O)O)CCC2=O)cc1Cl` registered a kinetic solubility greater than 40 µg/mL.

`COc1cc(/C=C2/C(=O)ON=C2C)cc(Cl)c1O` showed a solubility (kinetic) greater than 40.2 µg/mL.

For `CCCCN(C(=O)COC(=O)c1ccccc1)c1c(N)n(CCC)c(=O)[nH]c1=O`, the solubility (kinetic) is greater than 60.4 µg/mL.

With `CC(C)Sc1nc2c([nH]1)c(=N)ncn2Cc1ccccc1`, the kinetic solubility is greater than 44.9 µg/mL.

`CC1CCC(C(=O)NC(C(=O)Nc2ccccn2)C(C)C)CC1` (stereo unspecified) returned a kinetic solubility of 13.5 µg/mL (≈ 42.5 µM).

Compound `Cc1cccc(C)c1NC(=O)CNCC(=O)N(C)C` registered a kinetic solubility greater than 39.5 µg/mL.

Consider `CC(=O)N/C(=C\c1ccccc1)C(=O)NC(C)C(=O)O` (stereo unspecified), for which the solubility (kinetic) was greater than 41.4 µg/mL.

Regarding `CCN(C(=O)c1cccnc1SC)C12CC3CC(CC(C3)C1)C2`, the kinetic solubility came out at 2.3 µg/mL (≈ 6.96 µM).

Consider `Oc1ccc(CNc2ccccc2)c2cccnc12`, for which the kinetic solubility was 3.5 µg/mL (≈ 14 µM).

`O=C(O)c1ccc(CN2C(=O)c3ccc(C(=O)O)cc3C2=O)cc1` had a solubility (kinetic) greater than 48.8 µg/mL.

`CC(C)N(Cc1cnn(C)c1)Cc1nc(Cc2ccccc2Cl)no1` had a solubility (kinetic) greater than 54 µg/mL.

In turn, `O=C(CSc1ncccn1)NC1CCCc2ccccc21` (stereo unspecified) showed a kinetic solubility of 42.5 µg/mL (≈ 142 µM).

As to `CCOC(=O)c1ccc(CN2Cc3ccccc3C2=O)cc1`, the kinetic solubility is greater than 44.3 µg/mL.

Consider `CCNC(=S)NNC(=O)c1ccc(S(=O)(=O)NCc2ccco2)cc1`, for which the solubility (kinetic) was greater than 57.4 µg/mL.

Regarding `Cc1ccccc1N1CC(C(=O)Nc2ccc3c(c2)OCO3)CC1=O` (stereo unspecified), the kinetic solubility was 43.4 µg/mL (≈ 128 µM).

Regarding `Cc1ccc(OCCCCN2CCc3ccccc3C2)cc1.Cl`, the kinetic solubility was determined as 22.8 µg/mL.

For `CCc1ccc(OCc2cnc(Cl)s2)cc1`, the kinetic solubility is less than 0.5 µg/mL.

With `O=C(NC1CC2CCCC(C1)N2Cc1ccc(F)cc1)c1ccc(F)cc1` (stereo unspecified), the kinetic solubility is greater than 55.6 µg/mL.

For `O=C(O)c1ccc(S(=O)(=O)NCC2CCCO2)cc1` (stereo unspecified), the solubility (kinetic) worked out at 34.7 µg/mL (≈ 122 µM).

In turn, `O=S(=O)(c1cccs1)N1CCC(CO)(Cc2cccc(F)c2)CC1` registered a solubility (kinetic) of 53.8 µg/mL (≈ 146 µM).
